In patent US10703756B2, “Pyrrolo[2,3-D]pyrimidinyl, pyrrolo[2,3-B]pyrazinyl, pyrrolo[2,3-B]pyridinyl acrylamides and epoxides thereof” (Pfizer Inc., priority 2015, dated 2020):

Legend:
JAK3 enzyme [1] = target: T1, JAK3 enzyme (Homo sapiens, UniProt P52333); test: JAK Caliper Enzyme Assay at 1 mM ATP; assay type: biochemical
T1 sequence (P52333 1-1124): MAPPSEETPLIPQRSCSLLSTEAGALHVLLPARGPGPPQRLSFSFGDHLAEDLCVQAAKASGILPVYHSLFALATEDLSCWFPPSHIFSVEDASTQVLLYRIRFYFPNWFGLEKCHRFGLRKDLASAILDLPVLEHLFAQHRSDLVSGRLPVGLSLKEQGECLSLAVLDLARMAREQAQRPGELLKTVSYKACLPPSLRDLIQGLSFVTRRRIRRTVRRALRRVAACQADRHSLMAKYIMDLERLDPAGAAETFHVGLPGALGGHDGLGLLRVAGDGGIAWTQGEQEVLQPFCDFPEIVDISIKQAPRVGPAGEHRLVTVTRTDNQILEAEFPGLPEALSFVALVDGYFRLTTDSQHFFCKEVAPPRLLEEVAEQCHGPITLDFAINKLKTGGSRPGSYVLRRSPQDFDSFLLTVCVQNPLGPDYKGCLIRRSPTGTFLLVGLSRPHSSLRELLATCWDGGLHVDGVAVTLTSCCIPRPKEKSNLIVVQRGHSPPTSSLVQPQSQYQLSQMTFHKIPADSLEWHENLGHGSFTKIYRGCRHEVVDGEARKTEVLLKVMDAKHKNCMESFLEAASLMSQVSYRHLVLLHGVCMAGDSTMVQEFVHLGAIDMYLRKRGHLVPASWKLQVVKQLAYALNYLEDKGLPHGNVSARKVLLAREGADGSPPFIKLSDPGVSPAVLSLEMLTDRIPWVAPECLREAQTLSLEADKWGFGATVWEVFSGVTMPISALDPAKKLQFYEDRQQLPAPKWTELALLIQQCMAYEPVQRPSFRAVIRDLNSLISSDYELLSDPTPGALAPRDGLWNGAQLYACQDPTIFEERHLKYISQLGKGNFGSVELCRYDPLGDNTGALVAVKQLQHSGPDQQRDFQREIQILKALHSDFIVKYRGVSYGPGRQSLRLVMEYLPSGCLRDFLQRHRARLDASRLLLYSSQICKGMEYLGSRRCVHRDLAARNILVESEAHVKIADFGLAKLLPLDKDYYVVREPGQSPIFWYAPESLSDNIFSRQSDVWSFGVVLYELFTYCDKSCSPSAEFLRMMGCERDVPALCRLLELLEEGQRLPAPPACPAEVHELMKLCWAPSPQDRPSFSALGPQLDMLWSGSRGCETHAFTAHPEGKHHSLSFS
Outline: (§1)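 Substrate conversion was kept within 20%-30% by adjusting enzyme and incubation for every preparation; peptide phosphorylation was quantified via on-chip mobility shift.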

[2] = tested on: IL-15 induced P-STAT5 in human PBMC; test: PBMC IL-15 Induced P-STAT5; assay type: cell-based; details: human PBMC, IL-15 final 41 ng/mL; read-out: PBMC IL15_pSTAT5_IC50
Outline: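 Flow cytometry gated on total lymphocytes measured STAT5 staining (Alexa Fluor 647 antibody, overnight, 4 °C) in fixed, methanol-permeabilised human PBMC. Cells had received compound for 15 min at 37 °C (0.2% DMSO final), followed by 41 ng/mL final human IL-15 for 15 min.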

JAK3 enzyme [3] = target: T1, JAK3 enzyme; test: JAK Caliper Enzyme Assay at 4 μM ATP; assay type: biochemical
Outline: as §1

SMILES | IC50 (JAK3 enzyme [1]) [nM] | IC50 (JAK3 enzyme [3]) [nM] | IC50 [2] [nM]
C=CC(=O)N1CCC(Oc2cnc3[nH]cc(C(=O)NCC4(O)CCC4)c3n2)CC1 [Example 203, 2-[(1-acryloylpiperidin-4-yl)oxy]-N-[(1-hydroxycyclobutyl)methyl]-5H-pyrrolo[2,3-b]pyrazine-7-carboxamide] | 370 | 2.82 | 4460
C=CC(=O)N1CCC(Oc2cnc3[nH]cc(C(=O)N[C@H]4CC[C@H](F)C4)c3n2)CC1 [Example 210, 2-[(1-acryloylpiperidin-4-yl)oxy]-N-[(1S,3S)-3-fluorocyclopentyl]-5H-pyrrolo[2,3-b]pyrazine-7-carboxamide] | 54 | 0.435 | 325
C=CC(=O)N1CCC(Oc2cnc3[nH]cc(C(=O)N[C@@H](C(C)C)[C@H](O)C(F)(F)F)c3n2)CC1 [Example 217, 2-[(1-acryloylpiperidin-4-yl)Oxy]-N-[(2S,3S)-1,1,1-trifluoro-2-hydroxy-4-methylpentan-3-yl]-5H-pyrrolo[2,3-b]pyrazine-7-carboxamide] | 272 | 1.97 | 2090
C=CC(=O)N1CCC(Oc2cnc3[nH]cc(C(=O)NCCCC#N)c3n2)CC1 [Example 218, 2-[(1-acryloylpiperidin-4-yl)oxy]-N-(3-cyanopropyl)-5H-pyrrolo[2,3-b]pyrazine-7-carboxamide] | 105 | 0.627 | 1200
C=CC(=O)N1CC[C@H](Nc2cnc3[nH]cc(C(=O)N[C@@H]4C[C@H]4C(F)(F)F)c3n2)[C@H](OC)C1 [Example 271, 2-{[(3R,4S)-1-acryloyl-3-methoxypiperidin-4-yl]amino}-N-[(1R,2R)-2-(trifluoromethyl)cyclopropyl]-5H-pyrrolo[2,3-b]pyrazine-7-carboxamide] | 144 | 0.676 | 1140
C=CC(=O)N1CCN(c2cnc3[nH]cc(C(=O)NC4CC(F)(F)C4)c3n2)C[C@@H]1CC(C)C [Example 273, 2-[(3S)-4-acryloyl-3-(2-methylpropyl)piperazin-1-yl]-N-(3,3-difluorocyclobutyl)-5H-pyrrolo[2,3-b]pyrazine-7-carboxamide] | 204 | 1.59 | 389
C=CC(=O)N1CCN(c2cnc3[nH]cc(C(=O)NCC4CC(F)(F)C4)c3n2)C[C@@H]1CC(C)C [Example 274, 2-[(3S)-4-acryloyl-3-(2-methylpropyl)piperazin-1-yl]-N-[(3,3-difluorocyclobutyl)methyl]-5H-pyrrolo[2,3-b]pyrazine-7-carboxamide] | 157 | 0.984 | 507
C=CC(=O)N1CCC(C)(Nc2cnc3[nH]cc(C(=O)NCC)c3n2)CC1 [Example 281, 2-[(1-acryloyl-4-methylpiperidin-4-yl)amino]-N-ethyl-5H-pyrrolo[2,3-b]pyrazine-7-carboxamide] | 73 | 1.02 | 1220
C=CC(=O)N1CC[C@H](Nc2cnc3[nH]cc(C(=O)NC[C@H](C)CC(F)(F)F)c3n2)[C@H](OC)C1 [Example 294, 2-[((3R,4S)-1-acryloyl-3-methoxypiperidin-4-yl)amino]-N-([2R]-4,4,4-trifluoro-2-methylbutyl)-5H-pyrrolo[2,3-b]pyrazine-7-carboxamide] | 62 | 1.16 | 575
C=CC(=O)N1CCC(C)(Nc2cnc3[nH]cc(C(=O)NCC(C)(F)F)c3n2)CC1 [Example 296, 2-[(1-acryloyl-4-methylpiperidin-4-yl)amino]-N-(2,2-difluoropropyl)-5H-pyrrolo[2,3-b]pyrazine-7-carboxamide] | 57 | 0.519 | 609
C=CC(=O)N1CC[C@@H](Nc2cnc3[nH]cc(C(=O)NCC(C)(C)C)c3n2)[C@@H](OC)C1 [Example 300, 2-{[(3S,4R)-1-acryloyl-3-methoxypiperidin-4-yl]amino}-N-(2,2-dimethylpropyl)-5H-pyrrolo[2,3-b]pyrazine-7-carboxamide] | 92 | 0.69 | 700
C=CC(=O)N1CCN(c2cnc3[nH]cc(C(=O)NCC4(O)CCC(F)(F)CC4)c3n2)C[C@@H]1CC(C)C [Example 302, 2-[(3S)-4-acryloyl-3-(2-methylpropyl)piperazin-1-yl]-N-[(4,4-difluoro-1-hydroxycyclohexyl)methyl]-5H-pyrrolo[2,3-b]pyrazine-7-carboxamide] | 385 | 2.89 | 1190

The remaining compounds from weak to strong by IC50 (JAK3 enzyme [1]), led by results:

IC50 (JAK3 enzyme [1]) [nM] | IC50 (JAK3 enzyme [3]) [nM] | SMILES | IC50 [2] [nM]
742 | 4.63 | C=CC(=O)N1CCN(c2cnc3[nH]cc(C(=O)NCCOC)c3n2)CC1(C)C [Example 265, 2-(4-acryloyl-3,3-dimethylpiperazin-1-yl)-N-(2-methoxyethyl)-5H-pyrrolo[2,3-b]pyrazine-7-carboxamide] | 2060
515 | 4.05 | C=CC(=O)N1CCN(c2cnc3[nH]cc(C(=O)NCC(C)(C)C)c3n2)CC1(C)C [Example 285, 2-(4-acryloyl-3,3-dimethylpiperazin-1-yl)-N-(2,2-dimethylpropyl)-5H-pyrrolo[2,3-b]pyrazine-7-carboxamide] | 1790
418 | 3.19 | C=CC(=O)N1CCN(c2cnc3[nH]cc(C(=O)NCC(C)(F)F)c3n2)CC1(C)C [Example 275, 2-(4-acryloyl-3,3-dimethylpiperazin-1-yl)-N-(2,2-difluoropropyl)-5H-pyrrolo[2,3-b]pyrazine-7-carboxamide] | 1030
330 | 1.43 | C=CC(=O)N1CC[C@@H](Nc2cnc3[nH]cc(C(=O)NCC4(O)CCC(F)(F)CC4)c3n2)[C@@H](OC)C1 [Example 268] | > 10000
328 | 0.922 | C=CC(=O)N1CCC(Oc2cnc3[nH]cc(C(=O)NC4CC(F)(F)C4)c3n2)CC1 [Example 212, 2-[(1-acryloylpiperidin-4-yl)oxy]-N-(3,3-difluorocyclobutyl)-5H-pyrrolo[2,3-b]pyrazine-7-carboxamide] | 1340
297 | 1.77 | C=CC(=O)N1C[C@H](Nc2cnc3[nH]cc(C(=O)NCCOC)c3n2)[C@](C)(C#N)C1 [Example 245, 2-{[(3R,4R)-1-acryloyl-4-cyano-4-methylpyrrolidin-3-yl]amino}-N-(2-methoxyethyl)-5H-pyrrolo[2,3-b]pyrazine-7-carboxamide] | > 10000
209 | 1.29 | C=CC(=O)N1CCN(c2cnc3[nH]cc(C(=O)NC4CCC4)c3n2)CC1(C)C [Example 289, 2-(4-acryloyl-3,3-dimethylpiperazin-1-yl)-N-cyclobutyl-5H-pyrrolo[2,3-b]pyrazine-7-carboxamide] | 454
155 | 0.59 | C=CC(=O)N1CC[C@H](Nc2cnc3[nH]cc(C(=O)NC4CC(F)(F)C4)c3n2)[C@H](OC)C1 [Example 277, 2-{[(3R,4S)-1-acryloyl-3-methoxypiperidin-4-yl]amino}-N-(3,3-difluorocyclobutyl)-5H-pyrrolo[2,3-b]pyrazine-7-carboxamide] | 2320
111 | 0.479 | C=CC(=O)N1CCN(c2cnc3[nH]cc(C(=O)NCC4CC(F)(F)C4)c3n2)CC1 [Example 276, 2-(4-acryloylpiperazin-1-yl)-N-[(3,3-difluorocyclobutyl)methyl]-5H-pyrrolo[2,3-b]pyrazine-7-carboxamide] | 623
97 | 0.782 | C=CC(=O)N1CCC(Oc2cnc3[nH]cc(C(=O)NCC(C)(F)F)c3n2)CC1 [Example 215, 2-[(1-acryloylpiperidin-4-yl)oxy]-N-(2,2-difluoropropyl)-5H-pyrrolo[2,3-b]pyrazine-7-carboxamide] | 619
